The OligoGym collection
HELM strings list units from the 5' end as sugar, base in round brackets, then linkage (d deoxyribose, r ribose, m 2'-O-methyl, p phosphodiester). Strings are as the collection lists them, not checked against the first reports. ss, as = sense and antisense strand

Conditions: siRNA
Also: test system not given here.

Substance	target mRNA knockdown [%]
RNA1{m(A)p.r(A)p.m(G)p.r(G)p.m(C)p.r(A)p.m(U)p.r(G)p.m(C)p.r(U)p.m(U)p.r(C)p.m(G)p.r(G)p.m(A)p.r(A)p.m(A)p.r(C)p.m(U)p.r(T)p.r(T)}|RNA2{r(A)p.m(G)p.r(U)p.r(U)p.r(U)p.r(C)p.r(C)p.r(G)p.r(A)p.r(A)p.m(G)p.r(C)p.r(A)p.r(U)p.m(G)p.r(C)p.r(C)p.r(U)p.r(U)p.r(T)p.r(T)}$$$RNA1{StrandType:ss}|RNA2{StrandType:as}$	60
RNA1{m(A)p.r(A)p.m(U)p.r(A)p.m(A)p.r(G)p.m(C)p.r(A)p.m(G)p.r(C)p.m(U)p.r(C)p.m(G)p.r(C)p.m(G)p.r(C)p.m(U)p.r(C)p.m(C)p.r(T)p.r(T)}|RNA2{r(G)p.r(G)p.m(A)p.r(G)p.r(C)p.r(G)p.r(C)p.r(G)p.m(A)p.r(G)p.r(C)p.r(U)p.r(G)p.r(C)p.r(U)p.r(U)p.m(A)p.r(U)p.r(U)p.r(T)p.r(T)}$$$RNA1{StrandType:ss}|RNA2{StrandType:as}$	32
RNA1{m(A)p.r(C)p.m(C)p.r(G)p.m(A)p.r(C)p.m(G)p.r(A)p.m(U)p.r(U)p.m(C)p.r(U)p.m(U)p.r(C)p.m(U)p.r(A)p.m(C)p.r(U)p.m(C)p.r(T)p.r(T)}|RNA2{r(G)p.r(A)p.r(G)p.r(U)p.r(A)p.r(G)p.r(A)p.r(A)p.r(G)p.r(A)p.r(A)p.r(U)p.r(C)p.r(G)p.r(U)p.r(C)p.r(G)p.r(G)p.r(U)p.r(T)p.r(T)}$$$RNA1{StrandType:ss}|RNA2{StrandType:as}$	42
RNA1{m(A)p.r(C)p.m(C)p.r(U)p.m(U)p.r(A)p.m(A)p.r(G)p.m(G)p.r(A)p.m(C)p.r(C)p.m(A)p.r(C)p.m(C)p.r(G)p.m(G)p.r(A)p.m(U)p.r(T)p.r(T)}|RNA2{r(A)p.r(U)p.r(C)p.m(C)p.r(G)p.r(G)p.r(U)p.r(G)p.r(G)p.r(U)p.r(C)p.r(C)p.m(U)p.r(U)p.m(A)p.r(A)p.m(G)p.r(G)p.m(U)p.r(T)p.r(T)}$$$RNA1{StrandType:ss}|RNA2{StrandType:as}$	52
RNA1{m(A)p.r(C)p.m(G)p.r(U)p.m(C)p.r(A)p.m(C)p.r(C)p.m(G)p.r(A)p.m(G)p.r(G)p.m(A)p.r(G)p.m(A)p.r(A)p.m(G)p.r(U)p.m(A)p.r(T)p.r(T)}|RNA2{r(U)p.r(A)p.r(C)p.r(U)p.r(U)p.r(C)p.r(U)p.r(C)p.r(C)p.r(U)p.r(C)p.m(G)p.m(G)p.r(U)p.r(G)p.r(A)p.r(C)p.m(G)p.r(U)p.r(T)p.r(T)}$$$RNA1{StrandType:ss}|RNA2{StrandType:as}$	31
RNA1{m(A)p.r(C)p.m(G)p.r(U)p.m(C)p.r(A)p.m(C)p.r(C)p.m(G)p.r(A)p.m(G)p.r(G)p.m(A)p.r(G)p.m(A)p.r(A)p.m(G)p.r(U)p.m(A)p.r(T)p.r(T)}|RNA2{r(U)p.r(A)p.r(C)p.r(U)p.r(U)p.r(C)p.r(U)p.r(C)p.r(C)p.r(U)p.r(C)p.r(G)p.r(G)p.r(U)p.r(G)p.r(A)p.r(C)p.r(G)p.r(U)p.r(T)p.r(T)}$$$RNA1{StrandType:ss}|RNA2{StrandType:as}$	36
RNA1{m(A)p.r(G)p.m(A)p.r(A)p.m(A)p.r(A)p.m(G)p.r(C)p.m(A)p.r(G)p.m(C)p.r(G)p.m(A)p.r(U)p.m(A)p.r(C)p.m(G)p.r(C)p.m(U)p.r(T)p.r(T)}|RNA2{r(A)p.r(G)p.r(C)p.r(G)p.r(U)p.r(A)p.r(U)p.r(C)p.r(G)p.r(C)p.r(U)p.r(G)p.r(C)p.r(U)p.r(U)p.r(U)p.r(U)p.r(C)p.r(U)p.r(T)p.r(T)}$$$RNA1{StrandType:ss}|RNA2{StrandType:as}$	34
RNA1{m(A)p.r(G)p.m(A)p.r(A)p.m(A)p.r(C)p.m(G)p.r(C)p.m(A)p.r(G)p.m(U)p.r(A)p.m(A)p.r(U)p.m(C)p.r(C)p.m(G)p.r(G)p.m(A)p.r(T)p.r(T)}|RNA2{r(U)p.r(C)p.r(C)p.m(G)p.m(G)p.r(A)p.r(U)p.r(U)p.r(A)p.r(C)p.r(U)p.m(G)p.r(C)p.m(G)p.r(U)p.r(U)p.r(U)p.r(C)p.r(U)p.r(T)p.r(T)}$$$RNA1{StrandType:ss}|RNA2{StrandType:as}$	36
RNA1{m(A)p.r(G)p.m(A)p.r(A)p.m(G)p.r(U)p.m(A)p.r(C)p.m(C)p.r(A)p.m(G)p.r(G)p.m(A)p.r(G)p.m(G)p.r(C)p.m(G)p.r(U)p.m(U)p.r(T)p.r(T)}|RNA2{r(A)p.r(A)p.r(C)p.r(G)p.r(C)p.r(C)p.r(U)p.r(C)p.r(C)p.r(U)p.r(G)p.r(G)p.r(U)p.r(A)p.r(C)p.r(U)p.r(U)p.r(C)p.r(U)p.r(T)p.r(T)}$$$RNA1{StrandType:ss}|RNA2{StrandType:as}$	24
RNA1{m(A)p.r(G)p.m(A)p.r(G)p.m(A)p.r(G)p.m(G)p.r(U)p.m(G)p.r(G)p.m(A)p.r(G)p.m(G)p.r(U)p.m(A)p.r(U)p.m(C)p.r(U)p.m(C)p.r(T)p.r(T)}|RNA2{r(G)p.r(A)p.r(G)p.r(A)p.r(U)p.r(A)p.r(C)p.r(C)p.r(U)p.r(C)p.r(C)p.m(A)p.r(C)p.r(C)p.r(U)p.m(C)p.r(U)p.m(C)p.r(U)p.r(T)p.r(T)}$$$RNA1{StrandType:ss}|RNA2{StrandType:as}$	67
RNA1{m(A)p.r(G)p.m(C)p.r(C)p.m(A)p.r(C)p.m(A)p.r(U)p.m(U)p.r(U)p.m(C)p.r(U)p.m(A)p.r(G)p.m(G)p.r(A)p.m(G)p.r(A)p.r(U)p.r(T)p.r(T)}|RNA2{r(A)p.r(U)p.r(C)p.r(U)p.r(C)p.r(C)p.r(U)p.r(A)p.r(G)p.r(A)p.r(A)p.r(A)p.r(U)p.r(G)p.r(U)p.r(G)p.r(G)p.r(C)p.r(U)p.r(T)p.r(T)}$$$RNA1{StrandType:ss}|RNA2{StrandType:as}$	19
RNA1{m(A)p.r(G)p.m(C)p.r(C)p.m(U)p.r(C)p.m(C)p.r(A)p.m(A)p.r(A)p.m(C)p.r(U)p.m(C)p.r(C)p.m(U)p.r(A)p.m(G)p.r(C)p.m(U)p.r(T)p.r(T)}|RNA2{r(A)p.r(G)p.m(C)p.r(U)p.r(A)p.r(G)p.r(G)p.r(A)p.r(G)p.r(U)p.r(U)p.r(U)p.r(G)p.r(G)p.r(A)p.r(G)p.r(G)p.m(C)p.r(U)p.r(T)p.r(T)}$$$RNA1{StrandType:ss}|RNA2{StrandType:as}$	47
RNA1{m(A)p.r(G)p.m(C)p.r(G)p.m(A)p.r(U)p.m(C)p.r(C)p.m(C)p.r(G)p.m(A)p.r(A)p.m(C)p.r(A)p.m(A)p.r(G)p.m(U)p.r(A)p.m(U)p.r(T)p.r(T)}|RNA2{r(A)p.r(U)p.r(A)p.m(C)p.r(U)p.r(U)p.r(G)p.r(U)p.r(U)p.m(C)p.r(G)p.r(G)p.r(G)p.r(A)p.r(U)p.m(C)p.r(G)p.m(C)p.r(U)p.r(T)p.r(T)}$$$RNA1{StrandType:ss}|RNA2{StrandType:as}$	34
RNA1{m(A)p.r(G)p.m(C)p.r(G)p.m(G)p.r(G)p.m(G)p.r(U)p.m(A)p.r(U)p.m(G)p.r(A)p.m(A)p.r(G)p.m(A)p.r(G)p.m(C)p.r(U)p.m(U)p.r(T)p.r(T)}|RNA2{r(A)p.r(A)p.r(G)p.r(C)p.r(U)p.r(C)p.r(U)p.r(U)p.r(C)p.r(A)p.r(U)p.r(A)p.r(C)p.r(C)p.r(C)p.r(C)p.r(G)p.r(C)p.r(U)p.r(T)p.r(T)}$$$RNA1{StrandType:ss}|RNA2{StrandType:as}$	75
RNA1{m(A)p.r(G)p.m(G)p.r(A)p.m(C)p.r(G)p.m(G)p.r(U)p.m(A)p.r(C)p.m(U)p.r(U)p.m(U)p.r(C)p.m(G)p.r(A)p.m(A)p.r(A)p.m(G)p.r(T)p.r(T)}|RNA2{r(C)p.m(U)p.m(U)p.m(U)p.r(C)p.r(G)p.r(A)p.r(A)p.r(A)p.r(G)p.m(U)p.r(A)p.r(C)p.r(C)p.r(G)p.m(U)p.r(C)p.r(C)p.m(U)p.r(T)p.r(T)}$$$RNA1{StrandType:ss}|RNA2{StrandType:as}$	17
RNA1{m(A)p.r(G)p.m(U)p.r(C)p.m(C)p.r(C)p.m(U)p.r(G)p.m(G)p.r(A)p.m(G)p.r(C)p.m(C)p.r(U)p.r(U)p.r(A)p.m(A)p.r(A)p.m(C)p.r(T)p.r(T)}|RNA2{r(G)p.r(U)p.r(U)p.r(U)p.r(A)p.r(A)p.r(G)p.r(G)p.r(C)p.r(U)p.r(C)p.r(C)p.r(A)p.r(G)p.r(G)p.r(G)p.r(A)p.r(C)p.r(U)p.r(T)p.r(T)}$$$RNA1{StrandType:ss}|RNA2{StrandType:as}$	68
RNA1{m(A)p.r(G)p.m(U)p.r(U)p.m(A)p.r(A)p.m(C)p.r(C)p.m(C)p.r(G)p.m(G)p.r(G)p.m(A)p.r(C)p.m(U)p.r(U)p.m(G)p.r(G)p.m(A)p.r(T)p.r(T)}|RNA2{r(U)p.r(C)p.r(C)p.r(A)p.r(A)p.m(G)p.r(U)p.r(C)p.r(C)p.r(C)p.m(G)p.m(G)p.m(G)p.r(U)p.r(U)p.r(A)p.r(A)p.r(C)p.r(U)p.r(T)p.r(T)}$$$RNA1{StrandType:ss}|RNA2{StrandType:as}$	45
RNA1{m(A)p.r(G)p.r(C)p.r(U)p.r(C)p.r(U)p.r(U)p.r(U)p.r(G)p.r(U)p.r(C)p.m(A)p.r(C)p.r(C)p.r(U)p.r(C)p.r(U)p.r(C)p.r(U)p.r(T)p.r(T)}|RNA2{m(A)p.r(G)p.m(A)p.r(G)p.m(A)p.r(G)p.m(G)p.r(U)p.m(G)p.r(A)p.m(C)p.r(A)p.m(A)p.r(A)p.m(G)p.r(A)p.m(G)p.r(C)p.m(U)p.r(T)p.r(T)}$$$RNA1{StrandType:ss}|RNA2{StrandType:as}$	19
RNA1{m(A)p.r(U)p.m(A)p.r(C)p.m(U)p.r(U)p.m(G)p.r(G)p.m(C)p.r(G)p.m(G)p.r(G)p.m(C)p.r(U)p.m(C)p.r(U)p.m(U)p.r(U)p.m(C)p.r(T)p.r(T)}|RNA2{m(G)p.r(A)p.r(A)p.r(A)p.m(G)p.r(A)p.m(G)p.r(C)p.r(C)p.r(C)p.m(G)p.r(C)p.r(C)p.r(A)p.r(A)p.m(G)p.r(U)p.r(A)p.r(U)p.r(T)p.r(T)}$$$RNA1{StrandType:ss}|RNA2{StrandType:as}$	25
RNA1{m(A)p.r(U)p.m(A)p.r(C)p.m(U)p.r(U)p.m(G)p.r(G)p.m(C)p.r(G)p.m(G)p.r(G)p.m(C)p.r(U)p.m(C)p.r(U)p.m(U)p.r(U)p.m(C)p.r(T)p.r(T)}|RNA2{r(G)p.r(A)p.r(A)p.r(A)p.r(G)p.r(A)p.r(G)p.r(C)p.r(C)p.r(C)p.r(G)p.r(C)p.r(C)p.r(A)p.r(A)p.r(G)p.r(U)p.r(A)p.r(U)p.r(T)p.r(T)}$$$RNA1{StrandType:ss}|RNA2{StrandType:as}$	19
RNA1{m(A)p.r(U)p.m(C)p.r(A)p.m(C)p.r(A)p.m(A)p.r(A)p.m(C)p.r(C)p.m(C)p.r(C)p.m(U)p.r(A)p.m(G)p.r(A)p.m(G)p.r(G)p.m(G)p.r(T)p.r(T)}|RNA2{r(C)p.r(C)p.r(C)p.r(U)p.r(C)p.r(U)p.m(A)p.r(G)p.r(G)p.r(G)p.r(G)p.r(U)p.r(U)p.r(U)p.r(G)p.r(U)p.r(G)p.m(A)p.r(U)p.r(T)p.r(T)}$$$RNA1{StrandType:ss}|RNA2{StrandType:as}$	35
